Measurements from US20080262000A1, “5-Alkoxyalkyl-6-alkyl-7-Aminoazolopyrimidines, Process for Their Preparation, Their Use for Controlling Harmful Fungi, and Compositions Comprising Them” (BASF Aktiengesellschaft, priority 2005, published 2008).
Like-named read-outs stand apart in the source and are kept apart here.

Tested on: Phytophthora infestans
Type: in vivo
Settings: potted tomato plants, untreated plants 90% infestation
[1] = 1 day of protective treatment, 250 ppm
[2] = 3 days of protective treatment, 250 ppm

| SMILES | infestation [1] | infestation (1 day of protective treatment, 16 ppm) | infestation [2] |
| --- | --- | --- | --- |
| CCCCCCCCOCCCc1c(COC)nc2ncnn2c1N [I-4] | 1% |  |  |
| CCCCCCCCc1c(C)nc2ncnn2c1N [comparative compound A] |  | 70% | 90% |
| CCCCCCCCOCCCc1c(CCC)nc2ncnn2c1N [comparative compound B] | 90% |  | 90% |
